# According to patent US20230337719A1, “ORAL PRODUCT” (Nicoventures Trading Limited, priority 2020, published 2023):
# B1: WGT14: terpene glycosyl transferase VvGT14 from Vitis vinifera (SEQ ID NO: 1) (protein, listed as Vitis vinifera)
# chain: MGSMEKPHAVCIPYPAQGHINPMLKVAKLLHFRGFRITFVNTEFNHTRLLKAQGPNSLNGLPTFQFETIPDGLPPSNVDATQDIPSLCASTKKNCLAPFRRLLAKLNDRGPPVTCIFSDAVMSFTLDAAQELGIPDLLLWTASACGFMAYVQYRSLIDKGFTPLKDESYLTNGYLDTVVDWIPGMKGIRLKDLPSFIRTTDPDDIMLDFAMGELERARKASAIIFNTFDALEQEVLDAIAPMYPPIYTIGPLQLLPDQIHDSELKLIGSNLWKEEPECLKWLDSKEPNSVVYVNYGSITVMTPQQLIEFAWGLANSNQSFLWILRPDLVSGESAILPPEFVAETEDRGLLAGWCPQEQVLTHQAIGGFLTHNGWNSTIEGLCAGVPMICWPFFAEQQTNCRYCCTEWGVGMEIDSDVKRDEVAKLVRELMVGEKGKVMKKKTMEWKHRAEVATTGPDGSSYLNLEKIFEQVLL
# Key:
# [1] = Modern Oral Intervention Trial: in-mouth glycoside degradation of spiked oral product, HPLC quantitation; type: in vivo, human
# Procedure: Test Product - An oral product was prepared based on the commercial product sold by British American Tobacco as LYFT. The product included microcrystalline cellulose as a filler. […] The samples were then left at room temperature for one day to evaporate the ethanol.
# Modern Oral Intervention Trial - Three healthy volunteers (female, 30-35 years of age) were asked to place the raspberry ketone spiked oral product under their upper lip, slightly to the side of the front teeth. After 30 sec, the product was moisturised by using the tip of the tongue. After 5 min, the product was disgorged into a centrifuge tube and any salivary enzymatic processes stopped by adding methanol (5 mL, p.A.) into the centrifuge tube. The procedure was repeated with intervention times of 0 (control sample), 10 and 20 min.
# Sample Preparation - The centrifuge tubes containing the oral product and methanol (5 mL, p.A.) were vortexed for 10 sec and then placed on a plate shaker for 10 min to extract the remaining raspberry ketone glycoside. Afterwards, the tubes were centrifuged (13,200 rpm, 10 min) and the supernatant decanted into a safe lock tube (2 mL). The safe lock tube was centrifuged (13,200 rpm, 10 min) and an aliquot taken for analysis.
# Quantitation of in-mouth glycoside degradation - Analysis was performed on a HPLC system (Knauer, Germany) equipped with a pump (AZURA P2.1S), auto-sampler (AZURA AS 6.1L) and diode-array UV/VIS detector (AZURA DAD 6.1L). Samples were loaded onto a reversed phase C18 column (Knauer, Eurospher II 100 C18, 3 mm × 100 mm) and separated with a 10 min gradient starting at 90% solvent mixture A (0.1% formic acid in water) in solvent mixture B (0.1% formic acid in methanol) at a flow rate of 0.5 mL/min changing to 30% A in 5 min and back to 90% A in 0.05 min holding for 4.5 min. The detection UV wavelength was set at 280 nm. Quantitation was performed by using an external calibration curve.
# 3 healthy volunteers were asked to place raspberry ketone spiked oral products under their upper lip according to a defined procedure and leave the pouch in their mouth for 5, 10 and 20 min. The remaining glycoside of the incubated samples as well as a control sample which was not incubated was extracted as described above and quantified by means of high pressure liquid chromatography and an external calibration curve.
# [2] = glucosylation of furaneol by glycosyl transferase; type: biochemical, Vitis vinifera
# Excerpt: At some instances, the present application refers to a glycosyl transferase being “capable of catalyzing” a certain reaction. For example, the present application may state that a glycosyl transferase is capable of catalyzing transfer of a sugar group from a sugar donor to a certain acceptor. This is meant to designate that under appropriate reaction conditions the rate at which the reaction product (in the example the adduct of the sugar group and the acceptor) is formed is at least 10-fold higher in the presence of said glycosyl transferase than the rate at which the reaction product is formed in a control experiment in the absence of said glycosyl transferase.
molecule,measurement,setting,value
4-[4′-Hydroxy phenyl]-butan-2-one-4′-O-β-D-glucopyranoside [raspberry ketone glycoside],amount of raspberry ketone remaining in product,"[1]; 0 min (control sample, not incubated), tester P-01, product spiked with 1200 ppm raspberry ketone glycoside",0.2 mg/mL
same,amount of raspberry ketone remaining in product,"[1]; 0 min (control sample, not incubated), tester P-02, product spiked with 1200 ppm raspberry ketone glycoside",0.2 mg/mL
same,amount of raspberry ketone remaining in product,"[1]; 0 min (control sample, not incubated), tester P-03, product spiked with 1200 ppm raspberry ketone glycoside",0.2 mg/mL
same,percentage release of raspberry ketone from glycoside,"[1]; 0 min, tester P-01",0%
same,percentage release of raspberry ketone from glycoside,"[1]; 0 min, tester P-02",0%
same,percentage release of raspberry ketone from glycoside,"[1]; 0 min, tester P-03",0%
same,amount of raspberry ketone remaining in product,"[1]; 5 min in mouth, tester P-01",0.15 mg/mL
same,percentage release of raspberry ketone from glycoside,"[1]; 5 min in mouth, tester P-01",25%
same,amount of raspberry ketone remaining in product,"[1]; 5 min in mouth, tester P-02",0.13 mg/mL
same,percentage release of raspberry ketone from glycoside,"[1]; 5 min in mouth, tester P-02",35%
same,amount of raspberry ketone remaining in product,"[1]; 5 min in mouth, tester P-03",0.16 mg/mL
same,percentage release of raspberry ketone from glycoside,"[1]; 5 min in mouth, tester P-03",20%
same,amount of raspberry ketone remaining in product,"[1]; 10 min in mouth, tester P-01",0.12 mg/mL
same,percentage release of raspberry ketone from glycoside,"[1]; 10 min in mouth, tester P-01",40%
same,amount of raspberry ketone remaining in product,"[1]; 10 min in mouth, tester P-02",0.10 mg/mL
same,percentage release of raspberry ketone from glycoside,"[1]; 10 min in mouth, tester P-02",50%
same,amount of raspberry ketone remaining in product,"[1]; 10 min in mouth, tester P-03",0.16 mg/mL
same,percentage release of raspberry ketone from glycoside,"[1]; 10 min in mouth, tester P-03",20%
same,amount of raspberry ketone remaining in product,"[1]; 20 min in mouth, tester P-01",0.06 mg/mL
same,percentage release of raspberry ketone from glycoside,"[1]; 20 min in mouth, tester P-01",70%
same,amount of raspberry ketone remaining in product,"[1]; 20 min in mouth, tester P-02",0.06 mg/mL
same,percentage release of raspberry ketone from glycoside,"[1]; 20 min in mouth, tester P-02",70%
same,amount of raspberry ketone remaining in product,"[1]; 20 min in mouth, tester P-03",0.13 mg/mL
same,percentage release of raspberry ketone from glycoside,"[1]; 20 min in mouth, tester P-03",35%
same,glycoside enzymatically cleaved,"[1]; after 20 min in mouth incubation, across all panellists",35 - 70%
B1,capability of catalyzing glucosylation of furaneol,[2],capable of catalyzing glucosylation of furaneol
